From article PMC7311426, “An amphipathic peptide with antibiotic activity against multidrug-resistant Gram-negative bacteria” (Nature Communications, 2020)
Converted amounts (≈) assume the structure as drawn. Like-named read-outs stand apart in the source and are kept apart here.

Assays:
Assay in all cases: microbe, parasite or virus in culture
[1] = tested on: A. baumannii clinical isolates
Procedure: The in vitro activity of AA139 and comparator antimicrobials was determined in two panels of clinical isolates of E. coli, K. pneumoniae, P. aeruginosa, and A. baumannii (Supplementary Table 3), and MIC90 presented. The US panel consisted of 331 clinical isolates from 2010 to 2012. It was tested by BMD in accordance with the CLSI guidelines (M07-A9, 2012)[39]. […] AA139 was diluted in 0.01% acetic acid/0.1% bovine serum albumin. Sterile polypropylene culture cluster round-bottom 96-well plates (Costar # 3879) were used for testing. The worldwide panel consisted of 445 clinical isolates from 2011 to 2013, geographically divided into Asia, Europe, North America, and Rest of World (Middle East, Latin America, Africa, and South Pacific) with each region representing ~25% of the isolates. It was tested by broth microdilution in accordance with the CLSI guidelines (M07-A9, 2012)[39]. […] The test media was CAMHB (Becton Dickinson). AA139 and polymyxin B were tested in media supplemented with 0.002% Tween 80 (Calbiochem). MIC90 values were calculated for all or subsets of the isolates. MIC correlation between AA139 and colistin was analyzed with data from the US panel.

K. pneumoniae = details: Klebsiella pneumoniae
Outline: (§1)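 Broth microdilution in MHB, 2-fold 12-point series from 128 or 64 down to 0.06 or 0.03 μg mL^−1, 5 × 10^5 CFU mL^−1. Extra runs in CAMHB per CLSI and in MHB with 1% agarose; n ≥ 6.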

P. aeruginosa = details: Pseudomonas aeruginosa
Outline: as §1

[2] = A. baumannii, worldwide isolates 2011-2013, n = 108

C[C@H]1COc2c(N3CCN(C)CC3)c(F)cc3c(=O)c(C(=O)O)cn1c23 [LEV, levofloxacin, reference compound]
MIC50 [1, 2]: 16 µg/mL (≈ 44.3 µM) | MIC90 [1, 2]: > 32 µg/mL | Number of isolates with MIC 0.03 (MIC frequency distribution) ([1]; A. baumannii, worldwide isolates 2011-2013, n = 108, count of isolates at MIC 0.03): 1 | Number of isolates with MIC 0.06 (MIC frequency distribution) ([1]; A. baumannii, worldwide isolates 2011-2013, n = 108, count of isolates at MIC 0.06): 4 | Number of isolates with MIC 0.125 (MIC frequency distribution) ([1]; A. baumannii, worldwide isolates 2011-2013, n = 108, count of isolates at MIC 0.125): 8 | Number of isolates with MIC 0.25 (MIC frequency distribution) ([1]; A. baumannii, worldwide isolates 2011-2013, n = 108, count of isolates at MIC 0.25): 2 | Number of isolates with MIC 0.5 (MIC frequency distribution) ([1]; A. baumannii, worldwide isolates 2011-2013, n = 108, count of isolates at MIC 0.5): 3 | Number of isolates with MIC 1 (MIC frequency distribution) ([1]; A. baumannii, worldwide isolates 2011-2013, n = 108, count of isolates at MIC 1): 0 | Number of isolates with MIC 2 (MIC frequency distribution) ([1]; A. baumannii, worldwide isolates 2011-2013, n = 108, count of isolates at MIC 2): 0 | Number of isolates with MIC 4 (MIC frequency distribution) ([1]; A. baumannii, worldwide isolates 2011-2013, n = 108, count of isolates at MIC 4): 6 | Number of isolates with MIC 8 (MIC frequency distribution) ([1]; A. baumannii, worldwide isolates 2011-2013, n = 108, count of isolates at MIC 8): 22 | Number of isolates with MIC 16 (MIC frequency distribution) ([1]; A. baumannii, worldwide isolates 2011-2013, n = 108, count of isolates at MIC 16): 20 | Number of isolates with MIC 32 (MIC frequency distribution) ([1]; A. baumannii, worldwide isolates 2011-2013, n = 108, count of isolates at MIC 32): 19 | Number of isolates with MIC 64 (MIC frequency distribution) ([1]; A. baumannii, worldwide isolates 2011-2013, n = 108, count of isolates at MIC 64): 0 | Number of isolates with MIC 128 (MIC frequency distribution) ([1]; A. baumannii, worldwide isolates 2011-2013, n = 108, count of isolates at MIC 128): 0 | Number of isolates with MIC >16 (MIC frequency distribution) ([1]; A. baumannii, worldwide isolates 2011-2013, n = 108, count of isolates at MIC >16): 0 | Number of isolates with MIC >32 (MIC frequency distribution) ([1]; A. baumannii, worldwide isolates 2011-2013, n = 108, count of isolates at MIC >32): 23 | Number of isolates with MIC >128 (MIC frequency distribution) ([1]; A. baumannii, worldwide isolates 2011-2013, n = 108, count of isolates at MIC >128): 0 | Number of isolates with MIC ≤0.015 (MIC frequency distribution) ([1]; A. baumannii, worldwide isolates 2011-2013, n = 108, count of isolates at MIC ≤0.015): 0 | MIC90 ([1]; Acinetobacter baumannii): > 32 µg/mL | MIC (K. pneumoniae; read-out: MIC, broth microdilution, K. pneumoniae 3010 spontaneous mutant, AA139 selection 4X, plate 1, colony 1, drug-free passage 1): 0.06 µg/mL (≈ 0.166 µM) | MIC (K. pneumoniae; read-out: MIC, broth microdilution, K. pneumoniae 3010 spontaneous mutant, AA139 selection 4X, plate 1, colony 1, drug-free passage 5): 0.06 µg/mL (≈ 0.166 µM) | MIC (K. pneumoniae; read-out: MIC, broth microdilution, K. pneumoniae 3010 spontaneous mutant, AA139 selection 8X, plate 1, colony 1, drug-free passage 1): 0.06 µg/mL (≈ 0.166 µM) | MIC (K. pneumoniae; read-out: MIC, broth microdilution, K. pneumoniae 3010 spontaneous mutant, AA139 selection 8X, plate 1, colony 1, drug-free passage 5): 0.06 µg/mL (≈ 0.166 µM) | MIC (P. aeruginosa; ATCC27853, read-out: MIC, broth microdilution, P. aeruginosa ATCC 27853 spontaneous mutant, AA139 selection 4X, plate 1, colony 2, drug-free passage 1): 2 µg/mL (≈ 5.53 µM) | MIC (P. aeruginosa; ATCC27853, read-out: MIC, broth microdilution, P. aeruginosa ATCC 27853 spontaneous mutant, AA139 selection 4X, plate 1, colony 3, drug-free passage 5): 2 µg/mL (≈ 5.53 µM) | MIC (P. aeruginosa; ATCC27853, read-out: MIC, broth microdilution, P. aeruginosa ATCC 27853 spontaneous mutant, AA139 selection 4X, plate 1, colony 4, drug-free passage 1): 2 µg/mL (≈ 5.53 µM) | MIC (P. aeruginosa; ATCC27853, read-out: MIC, broth microdilution, P. aeruginosa ATCC 27853 spontaneous mutant, AA139 selection 4X, plate 1, colony 5, drug-free passage 1): 2 µg/mL (≈ 5.53 µM) | MIC (P. aeruginosa; ATCC27853, read-out: MIC, broth microdilution, P. aeruginosa ATCC 27853 spontaneous mutant, AA139 selection 4X, plate 1, colony 5, drug-free passage 5): 2 µg/mL (≈ 5.53 µM) | MIC (P. aeruginosa; ATCC27853, read-out: MIC, broth microdilution, P. aeruginosa ATCC 27853 spontaneous mutant, AA139 selection 4X, plate 1, colony 6, drug-free passage 1): 2 µg/mL (≈ 5.53 µM) | MIC (P. aeruginosa; ATCC27853, read-out: MIC, broth microdilution, P. aeruginosa ATCC 27853 spontaneous mutant, AA139 selection 4X, plate 2, colony 1, drug-free passage 1): 2 µg/mL (≈ 5.53 µM) | MIC (P. aeruginosa; ATCC27853, read-out: MIC, broth microdilution, P. aeruginosa ATCC 27853 spontaneous mutant, AA139 selection 4X, plate 2, colony 2, drug-free passage 1): 2 µg/mL (≈ 5.53 µM) | MIC (P. aeruginosa; ATCC27853, read-out: MIC, broth microdilution, P. aeruginosa ATCC 27853 spontaneous mutant, AA139 selection 8X, plate 1, colony 1, drug-free passage 5): 2 µg/mL (≈ 5.53 µM) | MIC (P. aeruginosa; ATCC27853, read-out: MIC, broth microdilution, P. aeruginosa ATCC 27853 spontaneous mutant, AA139 selection 8X, plate 1, colony 2, drug-free passage 1): 2 µg/mL (≈ 5.53 µM) | MIC (P. aeruginosa; read-out: MIC, broth microdilution, P. aeruginosa UNT 138-1 spontaneous mutant, AA139 selection 4X, plate 1, colony 1, drug-free passage 1): 2 µg/mL (≈ 5.53 µM)
